Experimental data from patent publication US5852011A, “Benzimidazole derivatives” (Mitsui Chemicals, Inc., priority 1994, dated 1998).
Counter-ions that a name gives are not always drawn. Blank lines part the entries; values can stand above or below the molecule they belong to.

Legend:
[1] = test system: Colon 26 mouse colon cancer cells; experiment: In vivo antitumor activity, Colon 26 subcutaneously transplanted to female CDF1 mice (Test 4); conditions: caudal vein, tumor weight on day 15
Description: Prepared was a 1×10^7 cells/ml suspension of Colon 26 mouse colon cancer cells in HBSS (Hanks' Balanced Salt Solution). A 0.1 ml portion of the cell suspension was subcutaneously transplanted to a lateroabdominal part of each female CDF1 mouse. After the body weight of the mouse was measured on the following day of the transplantation of the tumor, a solution of a compound (5% glucose solution containing 5% of "Tween 80") was administered into the caudal vein of the mouse. On day 15, a tumor was excised and its weight was measured.
The percentage of the average tumor weight of each experiment group as calculated by supposing that the average tumor weight of the control group not administered with any drug was 100% was calculated as a T/C value.
Corresponding to each compound number, its T/C value is shown. The number in parentheses indicates the concentration of the drug when the T/C value was indicated.

mouse B16 melanoma cells = experiment: In vitro inhibition of proliferation of tumored cells, mouse B16 melanoma (Test 2); type: cell-based; conditions: 3 days in 5% CO2 at 37° C., 96-well plate
Description: A description will next be made of antitumor activities of these compounds. Their antitumor activities were determined by measuring their in vitro inhibition of proliferation of tumored cells. Namely, mouse B16 melanoma cells were spread over a 96-well culture plate. One day later, each drug was applied. The melanoma cells were then incubated for 3 days in 5% CO2 at 37° C. Following the method reported in Cancer Res., 48, 589-601(1988), the concentration of the drug required to induce 50% inhibition on the proliferation was determined. As a comparative example, the results obtained from the application of distamycin are also shown.

P388 leukemia cells = experiment: In vivo antitumor activity, P388 leukemia intraperitoneally transplanted to female CDF1 mice (Test 3); set-up: species or system mouse; ILS: unit not given here; conditions: intraperitoneal, one, five and nine days after transplantation; for Survived After 8 weeks/Tested Animals: concentration 3 (in parentheses)
Description: In vivo antitumor activities of these compounds were also studied. P388 leukemia cells (10^6 cells/mouse) were intraperitoneally transplanted to female CDF1 mice. One, five and nine days later, each compound was intraperitoneally administered (at 1, 3 or 10 mg/kg) to the mice. As a blank test, 5% glucose was intraperitoneally administered at 10 ml/kg to mice. Based on the group of the mice in the blank test as a control group, the effects of the individual drugs are shown in terms of ILS. The term "ILS" is represented by the following formula: [formula]
When test animals survived 8 weeks after the administration, the number of those survived was recorded without calculation of ILS.

SMILES: Cc1cc(N(CCCl)CCCl)ccc1NC(=O)c1ccc2[nH]c(-c3cc(NC(=O)CNC(=N)N)cn3C)nc2c1 [Compound 1024, 1H-2-[1-Methyl-4-(guanidinoacetylamino)pyrrol-2-yl]benzimidazole-5-[N-[2-methyl-4-[N,N-bis(2-chloroethyl)amino]phenyl]]carboxamide dihydrochloride]
- T/C ([1]; 10 mg/Kg): 61%
- 50% Inhibition (mouse B16 melanoma cells): 0.586 µg/mL

SMILES: Cn1cc(NC(=O)c2ccc(N(CCCl)CCCl)cc2)cc1-c1nc2cc(C(=O)Nc3ccc(N(CCCl)CCCl)cc3)ccc2[nH]1 [Compound 2001, 1H-2-[4-[4-[N,N-Bis(2-chloroethyl)amino]benzoylamino]-1-methylpyrrol-2-yl]benzimidazole-5-[N-[4-[N,N-bis(2-chloroethyl)amino]phenyl]]carboxamide]
- 50% Inhibition (mouse B16 melanoma cells): 0.005 µg/mL
- ILS (P388 leukemia cells; 10 mg/kg): 47

SMILES: Cn1cc(NC(=O)c2cc(N(CCCl)CCCl)cc(N(CCCl)CCCl)c2)cc1-c1nc2cc(C(=O)NCCC(=N)N)ccc2[nH]1 [Compound 310, 1H-2-[4-[3,5-Bis[N,N-bis(2-chloroethyl)amino]benzoylamino]-1-methylpyrrol-2-yl]benzimidazole-5-[N-(2-amidinoethyl)]carboxamide hydrochloride]
- 50% Inhibition (mouse B16 melanoma cells): 0.76 µg/mL
- ILS (P388 leukemia cells; 1 mg/kg): 88

SMILES: Cn1cc(NC(=O)Cc2ccc(N(CCCl)CCCl)cc2)cc1-c1nc2cc(C(=O)NCCC(=N)N)ccc2[nH]1 [Compound 2, 1H-2-[4-[2-[4-[N,N-Bis(2-chloroethyl)amino]phenyl]acetylamino]-1-methylpyrrol-2-yl]benzimidazole-5-[N-(2-amidinoethyl)]carboxamide hydrochloride]
- 50% Inhibition (mouse B16 melanoma cells): 0.25 µg/mL
- ILS (P388 leukemia cells; 1 mg/kg): 59
- Survived After 8 weeks/Tested Animals (P388 leukemia cells): 2/5

SMILES: COc1cc(C(=O)Nc2cc(-c3nc4cc(C(=O)NCCC(=N)N)ccc4[nH]3)n(C)c2)ccc1N(CCCl)CCCl [Compound 6, 1H-2-[4-[3-Methoxy-4-[N,N-bis(2-chloroethyl)amino]benzoylamino]-1-methylpyrrol-2-yl]benzimidazole-5-[N-(2-amidinoethyl)]carboxamide hydrochloride]
- 50% Inhibition (mouse B16 melanoma cells): 0.02 µg/mL
- ILS (P388 leukemia cells; 1 mg/kg): 94

SMILES: Cn1cc(NC(=O)CNC(=N)N)cc1-c1nc2cc(C(=O)NCCCC(=O)Nc3ccc(N(CCCl)CCCl)cc3)ccc2[nH]1 [Compound 1592, 1H-2-[4-(Guanidinoacetyl)amino-1-methylpyrrol-2-yl]benzimidazole-5-[N-[3-[N-[4-[N,N-bis(2-chloroethyl)amino]phenyl]carboxamido]propyl]]carboxamide hydrochloride]
- 50% Inhibition (mouse B16 melanoma cells): 0.61 µg/mL

SMILES: COc1cccc2c1C(=O)c1c(O)c3c(c(O)c1C2=O)C[C@@](O)(C(=O)CO)C[C@@H]3O[C@H]1C[C@H](N)[C@H](O)[C@H](C)O1 [Adriamycin, adriamycin, reference compound]
- T/C ([1]; 20 mg/Kg): 40%

SMILES: Cn1cc(NC(=O)c2ccc(N(CCCl)CCCl)cc2)cc1-c1nc2cc(C(=O)NCc3ccc[n+](C)c3)ccc2[nH]1 [Compound 247, 3-[[1H-2-[4-[4-[N,N-Bis(2-chloroethyl)amino]-benzoylamino]-1-methylpyrrol-2-yl]benzimidazole-5-carboxamido]methyl]-1-methylpyridinium chloride]
- 50% Inhibition (mouse B16 melanoma cells): 2.6 µg/mL

SMILES: Cn1cc(NC(=O)CCn2ccnc2)cc1-c1nc2cc(C(=O)Nc3ccc(N(CCCl)CCCl)cc3)ccc2[nH]1 [Compound 1589, 1H-2-[1-Methyl-4-[[3-(imidazol-1-yl)propionyl]amino]pyrrol-2-yl]benzimidazole-5-[N-[4-[N,N-bis(2-chloroethyl)]amino]phenyl]carboxamide]
- 50% Inhibition (mouse B16 melanoma cells): 0.41 µg/mL

SMILES: CCN(CCCl)c1ccc(NC(=O)c2ccc3[nH]c(-c4cc(NC(=O)c5ccc(N(CC)CCCl)cc5)cn4C)nc3c2)cc1.Cl [Compound 2089, 1H-2-[1-Methyl-4-[4-[N-ethyl,N-(2-chloroethyl)amino]benzoylamino]pyrrol-2-yl]benzimidazole-5-[N-[4-[N-ethyl,N-(2-chloroethyl)amino]phenyl]]carboxamidehydrochloride]
- 50% Inhibition (mouse B16 melanoma cells): 0.0057 µg/mL

- IC50 (mouse B16 melanoma cells; Mus musculus, B16, 72 h, read-out: 50% Inhibition): 0.6 µg/mL
SMILES: Cn1cc(NC(=O)CCCCCBr)cc1-c1nc2cc(C(=O)NCCC(=N)N)ccc2[nH]1 [Compound 16, hydrochloride]

SMILES: Cn1cc(NC(=O)CNC(=N)N)cc1-c1nc2cc(C(=O)Nc3cccc(N(CCCl)CCCl)c3)ccc2[nH]1 [Compound 1047, 1H-2-[1-Methyl-4-(guanidinoacetylamino)pyrrol-2-yl]benzimidazole-5-[N-[3-[N,N-bis(2-chloroethyl)amino]phenyl]]carboxamide dihydrochloride]
- 50% Inhibition (mouse B16 melanoma cells): 0.0946 µg/mL

SMILES: Cn1cc(NC(=O)c2ccc(N(CCCl)CCCl)cc2)cc1-c1nc2cc(C(=O)NCc3cccnc3)ccc2[nH]1 [Compound 223, 1H-2-[4-[4-[N,N-Bis(2-chloroethyl)amino]benzoylamino]-1-methylpyrrol-2-yl]benzimidazole-5-[N-(3-picolyl)]carboxamide hydrochloride]
- 50% Inhibition (mouse B16 melanoma cells): 1.1 µg/mL

SMILES: Cn1cc(NC(=O)c2ccccc2N(CCCl)CCCl)cc1-c1nc2cc(C(=O)NCCC(=N)N)ccc2[nH]1 [Compound 305, 1H-2-[4-[2-[N,N-Bis(2-chloroethyl)amino]benzoylamino]-1-methylpyrrol-2-yl)benzimidazole-5-[N-(2-amidinoethyl)]carboxamide hydrochloride]
- 50% Inhibition (mouse B16 melanoma cells): 4.2 µg/mL
- ILS (P388 leukemia cells; 10 mg/kg): 22

SMILES: N=C(N)NCC(=O)Nc1cc(-c2nc3cc(C(=O)Nc4ccc(N(CCCl)CCCl)cc4)ccc3[nH]2)cs1 [Compound 1617, 1H-2-[5-(Guanidinoacetyl)aminothiophen-3-yl]benzimidazole-5-[N-[4-[N,N-bis(2-chloroethyl)amino]phenyl]]carboxamide dihydrochloride]
- 50% Inhibition (mouse B16 melanoma cells): 0.12 µg/mL

SMILES: Cn1cc(NC(=O)CCCN)cc1-c1nc2cc(C(=O)Nc3ccc(N(CCCl)CCCl)cc3)ccc2[nH]1 [Compound 1488, 1H-2-[4-(4-aminobuturylamino)-1-methylpyrrol-2-yl]benzimidazole-5-[N-[4-[N,N-bis(2-chloroethyl)amino]phenyl]]carboxamide]
- 50% Inhibition (mouse B16 melanoma cells): 2.85 µg/mL

SMILES: Cn1cc(NC(=O)COc2ccc(N(CCCl)CCCl)cc2)cc1-c1nc2cc(C(=O)NCCC(=N)N)ccc2[nH]1 [Compound 13, 1H-2-[4-[4-[N,N-Bis(2-chloroethyl)amino]phenoxyacetylamino]-1-methylpyrrol-2-yl]benzimidazole-5-[N-(2-amidinoethyl)]carboxamide hydrochloride]
- 50% Inhibition (mouse B16 melanoma cells): 0.01 µg/mL
- ILS (P388 leukemia cells; 1 mg/kg): 123
- Survived After 8 weeks/Tested Animals (P388 leukemia cells): 3/5

SMILES: CSCCC(=O)Nc1cc(-c2nc3cc(C(=O)Nc4ccc(N(CCCl)CCCl)cc4)ccc3[nH]2)n(C)c1 [Compound 1520, 1H-2-[1-Methyl-4-[3-(methylthio)propionylamino]pyrrol-2-yl]benzimidazole-5-[N-[4-[N,N-bis(2-chloroethyl)amino]phenyl]]carboxamide]
- 50% Inhibition (mouse B16 melanoma cells): 0.33 µg/mL

SMILES: Cn1cc(NC(=O)N2CCOCC2)cc1-c1nc2cc(C(=O)Nc3ccc(N(CCCl)CCCl)cc3)ccc2[nH]1 [Compound 1536, 1H-2-[1-Methyl-4-(4-morpholinecarbonyl)aminopyrrol-2-yl]benzimidazole-5-[N-[4-[N,N-bis(2-chloroethyl)amino]phenyl]]carboxamide]
- 50% Inhibition (mouse B16 melanoma cells): 0.53 µg/mL

SMILES: CCCCNC(=O)c1ccc2[nH]c(-c3cc(NC(=O)c4ccc(N(CCCl)CCCl)cc4)cn3C)nc2c1 [Compound 336, 1H-2-[4-[4-[N,N-Bis(2-chloroethyl)amino]benzoylamino]-1-methylpyrrol-2-yl]benzimidazole-5-(N-butyl)carboxamide]
- 50% Inhibition (mouse B16 melanoma cells): 0.24 µg/mL

SMILES: Cn1cc(NC(=O)CC[S+](C)C)cc1-c1nc2cc(C(=O)Nc3ccc(N(CCCl)CCCl)c(F)c3)ccc2[nH]1 [1076 (Cl' salt), 2-[N-[1-Methyl-2-[5-[N-[3-fluoro-4-[N,N-bis(2-chloroethyl)amino]phenyl]]carbamoyl]-1H-benzimidazol-2-ylpyrrol-4-yl]carbamoylethyl-dimethylsulfonium chloride]
- 50% Inhibition (mouse B16 melanoma cells): 0.45 µg/mL

SMILES: Cc1cc(NC(=O)c2ccc3[nH]c(-c4cc(NC(=O)CCCN(C)C)cn4C)nc3c2)ccc1N(CCCl)CCCl [Compound 1260, 1H-2-[1-Methyl-4-[4-(N,N-dimethylamino)butyrylamino]pyrrol-2-yl]benzimidazole-5-[N-[3-methyl-4-[N,N-bis(2-chloroethyl)amino]phenyl]]carboxamide dihydrochloride]
- 50% Inhibition (mouse B16 melanoma cells): 3.1 µg/mL
